Measured values taken from US11077120B2, “Prostaglandin receptor EP2 antagonists, derivatives, compositions, and uses related thereto” (Emory University, priority 2014, dated 2021).
Read-outs that look alike come from different tables or passages of the source.

Experiments:
human DP1 receptors = target: T1, human DP1 receptors (Homo sapiens, UniProt Q13258); experiment: cell-based cAMP TR-FRET assay, DP1 (agonist BW245C); conditions: for Kb / DP1 KB: Table 6; for Kb: read-out: DP1 KB; for Selective Index (DP1/EP2): Table 2
T1 construct: expressed in transfected cells
T1 sequence (Q13258 1-359): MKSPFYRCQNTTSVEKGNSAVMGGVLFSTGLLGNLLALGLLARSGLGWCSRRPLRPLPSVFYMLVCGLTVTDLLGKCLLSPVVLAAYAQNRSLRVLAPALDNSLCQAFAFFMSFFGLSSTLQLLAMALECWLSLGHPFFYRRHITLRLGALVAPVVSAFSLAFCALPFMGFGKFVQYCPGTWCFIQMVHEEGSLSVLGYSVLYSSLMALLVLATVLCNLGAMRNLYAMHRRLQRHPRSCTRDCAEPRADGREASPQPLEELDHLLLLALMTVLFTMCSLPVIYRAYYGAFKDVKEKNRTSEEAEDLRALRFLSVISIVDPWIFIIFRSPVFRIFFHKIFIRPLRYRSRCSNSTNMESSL
Description: (§1) The synthesis was carried out starting from commercially available 2-methyl indole or 2-trifluoromethyl indoles (11a-c), which on treatment with bromoacetonitrile provided intermediates (12a-c), which then were subjected to lithium aluminum hydride to reduce cyanide to amines. […] Synthesized derivatives were tested by using a cAMP-derived TR-FRET assay, at single concentration (1 μM) to observe a rightward shift of PGE2 (an EP2 agonist) concentration response curve in a C6G cell line that overexpresses human EP2 receptors.
Intracellular cAMP was measured with a cell-based homogeneous time-resolved fluorescence resonance energy transfer (TR-FRET) method (Cisbio Bioassays). […] Endogenous cAMP produced by cells competes with labeled cAMP for binding to the cAMP antibody and thus reduces the FRET signal. Cells stably expressing human DP1, EP2, EP4, or IP receptors were seeded into 384-well plates in 30 μl complete medium (4,000 cells/well) and grown overnight. The medium was carefully withdrawn and 10 μl Hanks' Buffered Salt Solution (HBSS) (Hyclone) containing 20 μM rolipram was added into the wells to block phosphodiesterases. The cells were incubated at room temperature for 0.5-1 h and then treated with vehicle or test compound for 10 min before addition of increasing concentrations of appropriate agonist: BW245C for DP1, PGE2 for EP2 and EP4, or iloprost for IP. The cells were incubated at room temperature for 40 min, then lysed in 10 μl lysis buffer containing the FRET acceptor cAMP-d2 and 1 min later another 10 μl lysis buffer with anti-cAMP-Cryptate was added. […] The FRET signal was expressed as: F665/F590×10^4.

human EP2 receptors = target: T2, human EP2 receptors (Homo sapiens, UniProt P43116); experiment: cell-based cAMP TR-FRET assay, rightward shift of PGE2 concentration response curve (Schild KB), EP2; conditions: for Kb: read-out: EP2 KB
T2 construct: expressed in transfected cells
T2 sequence (P43116 whole entry): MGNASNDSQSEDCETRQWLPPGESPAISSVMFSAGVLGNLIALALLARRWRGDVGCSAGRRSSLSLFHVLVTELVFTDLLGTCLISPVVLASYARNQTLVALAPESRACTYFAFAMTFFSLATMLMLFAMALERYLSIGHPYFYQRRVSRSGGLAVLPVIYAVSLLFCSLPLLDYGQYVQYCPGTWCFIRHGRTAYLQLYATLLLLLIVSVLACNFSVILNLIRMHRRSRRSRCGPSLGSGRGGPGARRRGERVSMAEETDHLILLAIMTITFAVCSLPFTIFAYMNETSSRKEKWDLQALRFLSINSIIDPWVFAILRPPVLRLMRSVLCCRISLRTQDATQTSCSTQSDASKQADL
Description: KB value indicates the antagonist concentration required for a twofold rightward shift in the PGE2 dose-response curve. Thus, a lower KB value indicates a higher inhibitory potency.
as §1
A lower KB value indicates a higher inhibitory potency.
(§2) Intracellular cAMP was measured with a cell-based homogeneous time-resolved fluorescence resonance energy transfer (TR-FRET) method (Cisbio Bioassays). […] Endogenous cAMP produced by cells competes with labeled cAMP for binding to the cAMP antibody and thus reduces the FRET signal. Cells stably expressing human DP1, EP2, EP4, or IP receptors were seeded into 384-well plates in 30 μl complete medium (4,000 cells/well) and grown overnight. The medium was carefully withdrawn and 10 μl Hanks' Buffered Salt Solution (HBSS) (Hyclone) containing 20 μM rolipram was added into the wells to block phosphodiesterases. The cells were incubated at room temperature for 0.5-1 h and then treated with vehicle or test compound for 10 min before addition of increasing concentrations of appropriate agonist: BW245C for DP1, PGE2 for EP2 and EP4, or iloprost for IP. The cells were incubated at room temperature for 40 min, then lysed in 10 μl lysis buffer containing the FRET acceptor cAMP-d2 and 1 min later another 10 μl lysis buffer with anti-cAMP-Cryptate was added. After 60-90 min incubation at room temperature, the FRET signal was measured by an Envision 2103 Multilabel Plate Reader (PerkinElmer Life Sciences) with a laser excitation at 337 nm and dual emissions at 665 nm and 590 nm for d2 and Cryptate (50 s delay), respectively. The FRET signal was expressed as: F665/F590×10^4.

C6-glioma cells = conditions: rat
Description: CC50 are average one measurement run in triplicate.
Several of compounds were examined against EP4 and IP receptors at single concentration of 10 μM.

human EP4 receptors = target: T3, human EP4 receptors (Homo sapiens, UniProt P35408); experiment: cell-based cAMP TR-FRET assay, EP4 (agonist PGE2); conditions: for Selective Index EP4/EP2 / potency estimated from few doses: Table 2; for potency estimated from few doses: extrapolated Schild KB from single concentration of 10 μM
T3 construct: expressed in transfected cells
T3 sequence (P35408 whole entry): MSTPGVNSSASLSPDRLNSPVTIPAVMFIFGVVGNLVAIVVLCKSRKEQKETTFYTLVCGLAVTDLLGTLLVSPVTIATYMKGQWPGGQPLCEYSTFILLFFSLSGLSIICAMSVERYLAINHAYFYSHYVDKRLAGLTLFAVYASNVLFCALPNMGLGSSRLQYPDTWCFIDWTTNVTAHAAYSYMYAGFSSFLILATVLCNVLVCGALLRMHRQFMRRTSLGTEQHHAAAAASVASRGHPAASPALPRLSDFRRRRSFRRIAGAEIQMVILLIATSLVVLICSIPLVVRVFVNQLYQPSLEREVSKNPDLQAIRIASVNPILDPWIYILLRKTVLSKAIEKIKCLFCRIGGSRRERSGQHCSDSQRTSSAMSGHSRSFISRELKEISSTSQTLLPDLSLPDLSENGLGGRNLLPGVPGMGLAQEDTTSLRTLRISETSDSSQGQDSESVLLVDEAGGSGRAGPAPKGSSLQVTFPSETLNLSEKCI
Description: (§3) These derivatives were selected for testing against EP4 and IP receptors. Cell lines were created that overexpress EP4 receptors, or IP receptors on C6-glioma cells. A cAMP-derived TR-FRET assay was developed using agonists PGE2 (for EP4) and iloprost (for IP), similar to EP2 assay.
as §2

human IP receptors = target: T4, human IP receptors (Homo sapiens, UniProt P43119); experiment: cell-based cAMP TR-FRET assay, IP (agonist iloprost); conditions: Table 2; for potency estimated from few doses: extrapolated Schild KB from single concentration of 10 μM
T4 construct: expressed in transfected cells
T4 sequence (P43119 whole entry): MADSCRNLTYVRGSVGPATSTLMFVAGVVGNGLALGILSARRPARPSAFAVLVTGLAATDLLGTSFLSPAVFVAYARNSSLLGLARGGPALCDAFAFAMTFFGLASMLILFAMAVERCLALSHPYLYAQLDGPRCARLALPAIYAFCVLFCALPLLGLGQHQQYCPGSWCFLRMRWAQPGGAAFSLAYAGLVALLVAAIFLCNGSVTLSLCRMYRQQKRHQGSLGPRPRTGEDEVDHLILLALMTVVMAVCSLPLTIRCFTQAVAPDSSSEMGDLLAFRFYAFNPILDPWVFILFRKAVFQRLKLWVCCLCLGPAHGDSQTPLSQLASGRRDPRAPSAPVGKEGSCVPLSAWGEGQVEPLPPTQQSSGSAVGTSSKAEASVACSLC
Description: as §3, §2

COc1ccc(C(=O)NCCn2c(C)cc3ccccc32)cc1OC [Compound 6b]
Kb (human DP1 receptors): 1350 nM | Kb (human EP2 receptors; Table 1, Schild KB from single antagonist concentration 1 μM, average of 2-3 measurements in duplicate): 22.3 nM | Kb (human EP2 receptors; Table 6): 26.7 nM

CCCN(CCC)c1ccc(C(=O)NCCn2c(C)cc3ccccc32)cc1 [Compound 6g]
CC50 (C6-glioma cells): 332000 nM | Therapeutic Index (CC50/EP2 KB) (C6-glioma cells): 28,130 | Selective Index EP4/EP2 (human EP4 receptors): 1320 | potency estimated from few doses (human EP4 receptors): 15500 nM | Selective Index (DP1/EP2) (human DP1 receptors): 298 | Selective Index (IP/EP2) (human IP receptors): 95 | potency estimated from few doses (human IP receptors): 1120 nM

Cc1cc2ccccc2n1CCNC(=O)c1ccc(N2CCCCCC2)cc1 [Compound 7o]
CC50 (C6-glioma cells): 327000 nM | Therapeutic Index (CC50/EP2 KB) (C6-glioma cells): 14,470 | Selective Index EP4/EP2 (human EP4 receptors): 1,045 | potency estimated from few doses (human EP4 receptors): 23600 nM | Selective Index (DP1/EP2) (human DP1 receptors): 342 | Selective Index (IP/EP2) (human IP receptors): 375 | potency estimated from few doses (human IP receptors): 8500 nM

Cc1cc2ccccc2n1CCNC(=O)c1ccc(N2CCN(C)CC2)c(F)c1 [Compound 7u]
CC50 (C6-glioma cells): 300000 nM | Therapeutic Index (CC50/EP2 KB) (C6-glioma cells): 6,660 | selectivity over EP4 (human EP4 receptors; EP2 over EP4): 100 fold | Selective Index EP4/EP2 (human EP4 receptors): 106 | potency estimated from few doses (human EP4 receptors): 4760 nM | Selective Index (DP1/EP2) (human DP1 receptors): 22 | Selective Index (IP/EP2) (human IP receptors): 1,420 | potency estimated from few doses (human IP receptors): 64000 nM

Cc1cc2ccccc2n1CCNC(=O)c1ccc(N2CCC(O)CC2)cc1 [Compound 7w]
CC50 (C6-glioma cells): 163000 nM | Therapeutic Index (CC50/EP2 KB) (C6-glioma cells): 6,082 | concentration showing an effect on cell viability (C6-glioma cells): > 100 µM | Selective Index EP4/EP2 (human EP4 receptors): 2,629 | potency estimated from few doses (human EP4 receptors): 70300 nM | Selective Index (DP1/EP2) (human DP1 receptors): 172 | Selective Index (IP/EP2) (human IP receptors): 675 | potency estimated from few doses (human IP receptors): 18100 nM

Cc1[nH]c2ccccc2c1CCNC(=O)c1ccc(N(C)C)cc1 [Compound 8z]
CC50 (C6-glioma cells): 320000 nM | potency estimated from few doses (human EP4 receptors): 16400 nM | potency estimated from few doses (human IP receptors): 63100 nM

Cc1[nH]c2ccccc2c1CCNC(=O)c1ccc(N2CCOCC2)cc1 [Compound 9c]
CC50 (C6-glioma cells): 311000 nM

Cc1cc2ccccc2n1CCNC(=O)c1cc(-c2ccccc2)no1 [TG7-242]
DP1 KB (human DP1 receptors): Inactive | Kb (human EP2 receptors; Table 6): 29.5 nM

Cc1cc2ccccc2n1CCNC(=O)c1cc(-c2ccc(F)cc2)n[nH]1 [TG7-245]
Kb (human DP1 receptors): 140000 nM | Kb (human EP2 receptors; Table 6): 22.7 nM

Cc1cc2ccccc2n1C1CCCN(C(=O)c2ccc(N3CCOCC3)cc2)C1 (centres unmarked) [TG7-292]
DP1 KB (human DP1 receptors): Inactive | Kb (human EP2 receptors; Table 6): 1790 nM

Cc1cc2ccccc2n1CCNC(=O)c1ccc(N=[N+]=[N-])cc1 [TG7-297]
Kb (human DP1 receptors): 1890 nM | Kb (human EP2 receptors; Table 6): 89.4 nM

Cc1cc2cc(Br)ccc2n1CCNC(=O)c1ccc(N2CCOCC2)cc1 [TG7-300]
Kb (human DP1 receptors): 18900 nM | Kb (human EP2 receptors; Table 6): 247 nM

Cc1cc2ccccc2n1CCNC(=O)c1ccc(OCCO)c(OCCO)c1 [TG8-3]
Kb (human DP1 receptors): 62900 nM | Kb (human EP2 receptors; Table 6): 271 nM

Cc1cc2ccccc2n1CCNC(=O)c1ccc(OCCO)cc1 [TG8-12]
Kb (human DP1 receptors): 2740 nM | Kb (human EP2 receptors; Table 6): 133 nM

CCOC(=O)C1CCN(c2ccc(C(=O)NCCn3c(C(F)(F)F)cc4ccccc43)cc2)CC1 [TG8-42]
Kb (human DP1 receptors): 3240 nM | Kb (human EP2 receptors; Table 6): 2740 nM

O=C(NCCn1c(C(F)(F)F)cc2ccccc21)c1ccc(N2CCC(C(=O)O)CC2)cc1 [TG8-46]
Kb (human DP1 receptors): 1060 nM | Kb (human EP2 receptors; Table 6): 413 nM

O=C(NCCn1c(C(F)(F)F)cc2ccccc21)c1ccc(-c2nnn[nH]2)cc1 [TG8-47]
Kb (human DP1 receptors): 795 nM | Kb (human EP2 receptors; Table 6): 1110 nM

C#Cc1ccc(C(=O)NCCn2c(C)cc3ccccc32)cc1 [TG8-52]
Kb (human DP1 receptors): 609 nM | Kb (human EP2 receptors; Table 6): 77.5 nM

Cc1cc2ccccc2n1CCNC(=O)c1ccc(-c2cn(COCc3ccccc3)nn2)cc1 [TG8-54]
Kb (human DP1 receptors): 3390 nM | Kb (human EP2 receptors; Table 6): 164 nM

Cc1cc2ccccc2n1CCNC(=O)c1ccc(-c2cn(Cc3ccccc3)nn2)cc1 [TG8-55]
Kb (human DP1 receptors): 6960 nM | Kb (human EP2 receptors; Table 6): 305 nM

Cc1cc2ccccc2n1CCNC(=O)c1cnc(N2CCC(CO)CC2)nc1 [TG8-59]
Kb (human DP1 receptors): 5850 nM | Kb (human EP2 receptors; Table 6): 159 nM

Cc1cc2ccccc2n1CCNC(=O)c1ccc(-n2cc(CO)nn2)cc1 [TG8-60]
Kb (human DP1 receptors): 2420 nM | Kb (human EP2 receptors; Table 6): 28.2 nM

Cc1cc2ccccc2n1CCNC(=O)c1ccc(OCCN(C)C)c(OCCN(C)C)c1 [TG8-76-2]
EP2 KB (human EP2 receptors; Table 6): Inactive
